Reference: US20170246227A1, “COMBINATION COMPRISING SPIRULINA AND PALMITOYLETHANOLAMIDE AND/OR SALTS OR PHARMACEUTICALLY ACCEPTABLE DERIVATIVES THEREOF AND THEIR FORMULATIONS, FOR USE IN THE PREVENTION AND/OR IN THE TREATMENT OF HYPERACTIVATED TISSUE CONDITIONS” (priority 2014, published 2017)

What was measured:
Assay type in all cases: in vivo, human
[1] = system: patients suffering from tinnitus; test: Clinical study of spirulina, PEA and their combination in the treatment of tinnitus; settings: 2 patients per group, oral tablets 2x2/day for 5 days then 1x2/day for 10 days; PEA 350 mg and/or spirulina 650 mg per tablet; combination 65% spirulina, 35% PEA
Procedure: A clinical study was performed to test the synergistic effect of the combination of spirulina (used as dry extract) and palmitoylethanolamide (PEA) in the treatment of tinnitus.
In the study, six patients were treated, comprising both men and women, with a mean age of 49.6 years (person, person, person, person, person, […] women), who had been suffering from tinnitus for at least one year. […]
The improvements regarding the tinnitus were declared by patients, while the improvement in hearing was measured via an audiometric test, carried out before and after administration of the combination in the invention. […]

[2] = system: patients suffering from age-related macular degeneration; test: Clinical study in senile macular degeneration, Amsler test before and after treatment; settings: 1 patient each, tablet 4x/day for 10 days then 2x/day for 30 days; PEA 450 mg and/or spirulina 550 mg per tablet; combination 55% spirulina, 45% PEA
Procedure: A clinical study was performed to test the synergistic effect of the combination of spirulina (used as dry extract) and PEA in the treatment of senile macular degeneration.
In the study, three patients were treated, comprising both men and women, who were suffering from age-related macular degeneration with the presence of macular drusen, i.e. localised deposits between the retinal pigment epithelium (RPE) and the Bruch membrane, together with geographic atrophy, characterised by RPE cell death and atrophy of the overlying photoreceptors.
All the patients underwent an assessment with the Amsler test, prior to administration of the combination of spirulina and PEA. All three patients presented macular degeneration with distortion (metamorphopsia) or line breaks with an average degree of macular degeneration. […]

[3] = system: patients with praecordial pain of cardiac origin (angina pectoris); test: Clinical study in angina pectoris (chest pain), stress ECG; settings: 1 patient each, PEA 300 mg and/or spirulina 700 mg per tablet, combination 70% spirulina, 30% PEA
Procedure: A clinical study was performed to test the synergistic effect of the combination of spirulina (used as dry extract) and PEA in the treatment of angina pectoris (chest pain).
In the study, three patients were treated, comprising both men and women who suffered from praecordial pain of cardiac origin. Upon undergoing a stress ECG, all the patients presented anginal pain during the stress and all were undergoing specific treatments (antihypertensives, beta blockers), which—nevertheless—were unable to fully control the aforesaid symptoms. […]

[4] = system: patients with peripheral neuropathy of diabetic origin; test: Clinical study in diabetic peripheral neuropathy: nerve conduction by neurological tuning fork, biothesiometer and Achilles reflex; settings: 1 patient each, combination 35% spirulina, 65% PEA
Procedure: A clinical study was performed to test the synergistic effect of the combination of spirulina (used as dry extract) and PEA in the treatment of peripheral neuropathy in diabetics.
In the study, three patients were treated, comprising both men and women who suffered from peripheral neuropathy of diabetic origin. All the patients presented the classic symptoms of peripheral neuropathy, i.e. the classic symptoms consisting of paraesthesias, the sensation of ‘walking on cotton wool’, insensitivity to heat and/or cold, etc., and all the patients were undergoing specific treatments to control glycaemic values, in particular oral hypoglycaemic agents. The patients' glycaemia was tested, both at the beginning and the end of the study, to see if taking the product influenced glycaemic control in any way. All the patients had mean fasting glycaemia values of approximately 140 to 165 mg/dl. […]

[5] = Fasting glycaemia at beginning and end of the diabetic peripheral neuropathy study; settings: 1 patient each, 35 days, on oral hypoglycaemic agents; combination 35% spirulina, 65% PEA
Procedure: In the study, three patients were treated, comprising both men and women who suffered from peripheral neuropathy of diabetic origin. All the patients presented the classic symptoms of peripheral neuropathy, i.e. the classic symptoms consisting of paraesthesias, the sensation of ‘walking on cotton wool’, insensitivity to heat and/or cold, etc., and all the patients were undergoing specific treatments to control glycaemic values, in particular oral hypoglycaemic agents. The patients' glycaemia was tested, both at the beginning and the end of the study, to see if taking the product influenced glycaemic control in any way. […]

[6] = system: diabetic patients with altered renal functions; test: Clinical study in altered renal functions in diabetics: creatinine value at beginning and end
Procedure: A clinical study was performed to test the synergistic effect of the combination of spirulina (used as dry extract) and PEA in the treatment of altered renal functions, preferably in diabetics.
In the study, three patients were treated, comprising both men and women who suffered from diabetes. All patients presented altered renal functions, evidenced by the creatinine value, i.e. a creatinine value of over 4 mg/dl (normal values range from 0.7 to 1.3 mg/dl). All the patients were undergoing specific treatments (conventional drugs, such as Decadurabolin, etc.) which, nevertheless, were unable to control the renal dysfunction. The patients' creatinine values were tested, both at the beginning and the end of the clinical study assessment.
In accordance with the present invention, the patients were treated according to the following schema: • the first patient was treated with a tablet comprising 650 mg of PEA, administered four times a day, for a daily total of 2,600 mg of PEA, for a duration of 5 days; next, the same patient was treated with one tablet, comprising 650 mg of PEA, administered twice a day, for a daily total of 1,300 mg of PEA, for a duration of 30 days; • the second patient was treated with a tablet comprising 350 mg of spirulina, administered four times a day, for a daily total of 1,400 mg of spirulina, for a duration of 5 days; next, the same patient was treated with one tablet, comprising 350 mg of spirulina, administered twice a day, for a daily total of 700 mg of spirulina, for a duration of 30 days; • next, the third patient was treated with one tablet, comprising 350 mg of spirulina and 650 mg of PEA, administered four times a day, for a daily total of 1,400 mg of spirulina combined with 2,600 mg of PEA, for a duration of 5 days; next, the same patient was treated with one tablet, comprising 350 mg of spirulina and 650 mg of PEA, administered twice a day, for a daily total of 700 mg of spirulina combined with 1,300 mg of PEA, for a duration of 30 days.

**Q.** With CCCCCCCCCCCCCCCC(=O)NCCO [PEA, Palmitoylethanolamide] as the molecule, how does the “change in tinnitus perceived (declared by patients)” value [1] read?
**A.** The value was “neither the two patients treated with PEA, nor the two patients treated with spirulina showed variations in the tinnitus”.

**Q.** And the “Amsler test result after treatment” value [2]?
**A.** The value was “slight improvement in the Amsler test result”.

**Q.** What about the “praecordial pain of cardiac origin when stress was increased during the stress ECG” value ([3]; 45 days) of the same molecule?
**A.** The value was “presented praecordial pain of cardiac origin”.

**Q.** And the “change in condition / capacity to endure the stress ECG versus before administration” value ([3]; tablet 4x/day for 15 days then 2x/day for 30 days, added to treatments already underway)?
**A.** The value was “no significant changes in condition”.

**Q.** What about the “nerve conduction assessed with tuning fork and biothesiometer” value ([4]; 35 days) of the same molecule?
**A.** Its value is “slight response to the biothesiometry test”.

**Q.** What about the “neuropathic symptoms / condition” value ([4]; tablet 4x/day for 5 days then 2x/day for 30 days, PEA 650 mg and/or spirulina 350 mg per tablet) of the same molecule?
**A.** The value was “slight improvement in the neuropathic symptoms”.

**Q.** What about the glycaemic profile [5] of the same molecule?
**A.** Its glycaemic profile is “without any influence on the glycaemic profile”.

**Q.** What about the renal functions ([6]; 1 diabetic patient each, tablet 4x/day for 5 days then 2x/day for 30 days, PEA 650 mg and/or spirulina 350 mg per tablet, combination 35% spirulina, 65% PEA) of the same molecule?
**A.** The renal functions was “no improvement in renal functions”.

**Q.** What about the “creatinine value at the end of the treatment” value ([6]; after 35 days, normal values 0.7 to 1.3 mg/dl, combination 35% spirulina, 65% PEA) of the same molecule?
**A.** The value was 4.4 mg/dL.

**Q.** And the “creatinine value at the beginning of the treatment” value ([6]; baseline of the treated patient, normal values 0.7 to 1.3 mg/dl)?
**A.** Its value is 4.3 mg/dL.
